{
  "source": "ChEMBL document CHEMBL5465560",
  "about": "“Selectivity Literature for EUbOPEN Chemogenomic Library” (2024)",
  "key": {"[1]": {"molecular_target": "T1, MAP kinase-activated protein kinase 5 (Homo sapiens) (UniProt Q8IW41)", "T1 sequence (whole entry)": "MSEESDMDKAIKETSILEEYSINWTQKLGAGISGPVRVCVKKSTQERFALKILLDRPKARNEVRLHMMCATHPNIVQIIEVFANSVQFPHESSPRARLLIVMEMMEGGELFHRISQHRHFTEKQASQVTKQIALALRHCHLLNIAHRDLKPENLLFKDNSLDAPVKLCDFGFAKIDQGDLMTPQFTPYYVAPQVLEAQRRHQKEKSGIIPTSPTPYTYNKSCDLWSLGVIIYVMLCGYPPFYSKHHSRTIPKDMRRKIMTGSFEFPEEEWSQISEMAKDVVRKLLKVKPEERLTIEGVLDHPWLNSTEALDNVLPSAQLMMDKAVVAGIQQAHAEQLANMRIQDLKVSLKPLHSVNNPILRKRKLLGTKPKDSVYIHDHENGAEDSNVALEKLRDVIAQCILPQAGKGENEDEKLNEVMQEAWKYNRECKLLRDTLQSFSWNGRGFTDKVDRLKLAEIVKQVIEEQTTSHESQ", "assay": "Selectivity interaction (KinomeScan (DiscoverX)) EUB0000092b MAPKAPK5", "details": "at 10 µM"}, "[2]": {"molecular_target": "T2, Mitogen-activated protein kinase kinase kinase kinase 2 (Homo sapiens) (UniProt Q12851)", "T2 sequence (whole entry)": "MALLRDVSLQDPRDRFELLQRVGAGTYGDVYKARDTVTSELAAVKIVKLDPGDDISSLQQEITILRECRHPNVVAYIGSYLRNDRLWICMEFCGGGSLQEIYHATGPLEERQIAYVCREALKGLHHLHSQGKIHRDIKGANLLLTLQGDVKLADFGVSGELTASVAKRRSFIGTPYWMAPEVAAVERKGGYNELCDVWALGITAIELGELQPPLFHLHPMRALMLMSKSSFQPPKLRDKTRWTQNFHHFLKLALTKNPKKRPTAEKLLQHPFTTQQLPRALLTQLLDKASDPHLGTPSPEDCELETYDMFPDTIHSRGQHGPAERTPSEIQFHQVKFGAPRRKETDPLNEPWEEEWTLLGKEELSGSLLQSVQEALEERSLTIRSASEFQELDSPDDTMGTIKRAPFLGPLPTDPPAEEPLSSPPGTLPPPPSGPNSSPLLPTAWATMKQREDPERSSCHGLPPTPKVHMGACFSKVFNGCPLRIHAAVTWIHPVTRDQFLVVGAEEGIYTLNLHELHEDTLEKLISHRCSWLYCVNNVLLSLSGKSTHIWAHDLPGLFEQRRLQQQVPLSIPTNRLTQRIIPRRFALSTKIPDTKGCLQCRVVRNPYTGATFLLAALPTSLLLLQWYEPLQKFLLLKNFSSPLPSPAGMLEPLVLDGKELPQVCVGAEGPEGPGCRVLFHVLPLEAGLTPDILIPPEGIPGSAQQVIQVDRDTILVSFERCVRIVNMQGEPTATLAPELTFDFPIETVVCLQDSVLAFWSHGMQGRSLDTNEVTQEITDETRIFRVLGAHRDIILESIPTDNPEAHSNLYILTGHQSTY", "assay": "Selectivity interaction (ActivX KiNativ screen (kinase selectivity in THP-1 cell lysates)) EUB0000639a MAP4K2", "type": "subcellular", "details": "lysate, at 0.2 µM"}, "[3]": {"molecular_target": "Tyrosine-protein kinase Yes (Homo sapiens) (UniProt P07947)", "sequence (P07947 2-543 limits assumed)": "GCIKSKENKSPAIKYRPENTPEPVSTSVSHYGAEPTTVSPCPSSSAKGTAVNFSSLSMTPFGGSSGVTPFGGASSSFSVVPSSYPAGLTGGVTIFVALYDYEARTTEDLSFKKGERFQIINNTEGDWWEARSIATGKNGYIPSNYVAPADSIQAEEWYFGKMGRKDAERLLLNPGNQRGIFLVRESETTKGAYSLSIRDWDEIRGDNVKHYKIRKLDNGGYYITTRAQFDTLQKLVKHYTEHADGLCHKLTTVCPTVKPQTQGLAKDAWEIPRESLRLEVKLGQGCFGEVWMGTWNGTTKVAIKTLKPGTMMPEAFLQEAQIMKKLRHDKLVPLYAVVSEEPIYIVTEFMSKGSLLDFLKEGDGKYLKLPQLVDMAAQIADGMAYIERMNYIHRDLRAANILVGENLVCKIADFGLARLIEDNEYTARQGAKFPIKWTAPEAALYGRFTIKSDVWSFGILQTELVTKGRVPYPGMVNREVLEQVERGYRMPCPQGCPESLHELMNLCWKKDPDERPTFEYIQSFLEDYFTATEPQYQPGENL", "assay": "Selectivity interaction (KinomeScan (DiscoverX)) EUB0000045b YES1"}, "[4]": {"molecular_target": "T3, Cyclin-dependent kinase-like 5 (Homo sapiens) (UniProt O76039)", "T3 sequence (whole entry)": "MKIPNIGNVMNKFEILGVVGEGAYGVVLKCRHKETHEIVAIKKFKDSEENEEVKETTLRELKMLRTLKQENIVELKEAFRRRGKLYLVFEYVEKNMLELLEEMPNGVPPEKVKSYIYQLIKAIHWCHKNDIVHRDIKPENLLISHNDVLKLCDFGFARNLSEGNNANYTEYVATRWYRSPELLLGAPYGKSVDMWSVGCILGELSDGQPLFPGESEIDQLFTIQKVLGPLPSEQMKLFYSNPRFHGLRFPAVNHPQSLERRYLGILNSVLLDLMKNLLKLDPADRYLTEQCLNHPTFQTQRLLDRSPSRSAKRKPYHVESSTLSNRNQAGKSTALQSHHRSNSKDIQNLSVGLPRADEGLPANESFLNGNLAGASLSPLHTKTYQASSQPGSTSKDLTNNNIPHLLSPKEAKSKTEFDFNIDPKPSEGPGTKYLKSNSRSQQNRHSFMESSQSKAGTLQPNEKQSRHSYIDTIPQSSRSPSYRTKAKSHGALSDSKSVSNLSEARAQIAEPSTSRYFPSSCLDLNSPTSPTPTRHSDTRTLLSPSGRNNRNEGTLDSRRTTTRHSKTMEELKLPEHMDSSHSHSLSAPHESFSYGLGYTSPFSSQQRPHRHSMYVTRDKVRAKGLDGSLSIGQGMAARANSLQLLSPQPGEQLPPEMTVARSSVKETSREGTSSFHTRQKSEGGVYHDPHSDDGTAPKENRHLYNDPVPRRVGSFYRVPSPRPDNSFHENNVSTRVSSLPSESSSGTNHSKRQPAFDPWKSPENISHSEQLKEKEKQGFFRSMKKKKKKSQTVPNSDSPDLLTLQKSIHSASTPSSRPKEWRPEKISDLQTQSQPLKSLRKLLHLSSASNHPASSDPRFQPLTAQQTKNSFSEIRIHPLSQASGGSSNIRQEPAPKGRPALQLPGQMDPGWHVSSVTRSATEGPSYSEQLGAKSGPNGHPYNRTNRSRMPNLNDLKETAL", "assay": "Selectivity interaction (KinomeScan (DiscoverX)) EUB0000618a CDKL5", "details": "at 10 µM"}},
  "data": [
    {"molecule": "CCC(=O)N1CCN(c2ccc(-n3c(=O)ccc4cnc5ccc(-c6cnc7ccccc7c6)cc5c43)cc2C(F)(F)F)CC1", "values": [
      {"measurement": "% of control", "setting": "[1]", "result": 100, "unit": "%"}
    ]},
    {"molecule": "CC[C@@H]1[C@H](F)C(=O)N[C@@H]1COc1nccc2cc(C(N)=O)c(OC)cc12", "note": "[ZIMLOVISERTIB]", "values": [
      {"measurement": "% of inhibition", "setting": "[2]", "result": 10.3, "unit": "%"}
    ]},
    {"molecule": "C=CC(=O)Nc1cc(-n2c(=O)ccc3cnc4ccc(-c5ccc(NS(C)(=O)=O)cc5)cc4c32)ccc1C", "values": [
      {"measurement": "% of control", "setting": "[3]; at 1 µM", "result": 74, "unit": "%"},
      {"measurement": "% of control", "setting": "[3]; at 10 µM", "result": 100, "unit": "%"}
    ]},
    {"molecule": "O[C@H]1CC[C@H](Nc2ncc3nc(Nc4c(F)cc(F)cc4F)n([C@H]4CCOC4)c3n2)CC1", "values": [
      {"measurement": "% of control", "setting": "[4]", "result": 100, "unit": "%"}
    ]}
  ]
}
